Experiments:
[1] = target: T1, Transient receptor potential cation channel subfamily V member 1 (Rattus norvegicus, UniProt O35433); assay: Displacement of [3H]resiniferatoxin from rat TRPV1 expressed in CHO cells by scintillation counting; assay type: cell-based
[2] = target: T1, Transient receptor potential cation channel subfamily V member 1; assay: Antagonist activity at rat TRPV1 expressed in CHO cells assessed as capsaicin-stimulated 45Ca2+ uptake; assay type: functional, cell-based
[3] = target: T1, Transient receptor potential cation channel subfamily V member 1; assay: Agonist activity at rat TRPV1 expressed in CHO cells by 45Ca2+ uptake assay; assay type: functional, cell-based
[4] = target: Transient receptor potential cation channel subfamily V member 1 (Rattus norvegicus) (UniProt O35433); assay: Agonist activity at rat TRPV1 expressed in CHO cells by 45Ca2+ uptake assay relative to capsaicin; assay type: functional, cell-based
Sequence of Transient receptor potential cation channel subfamily V member 1 (Rattus norvegicus) (O35433 whole entry): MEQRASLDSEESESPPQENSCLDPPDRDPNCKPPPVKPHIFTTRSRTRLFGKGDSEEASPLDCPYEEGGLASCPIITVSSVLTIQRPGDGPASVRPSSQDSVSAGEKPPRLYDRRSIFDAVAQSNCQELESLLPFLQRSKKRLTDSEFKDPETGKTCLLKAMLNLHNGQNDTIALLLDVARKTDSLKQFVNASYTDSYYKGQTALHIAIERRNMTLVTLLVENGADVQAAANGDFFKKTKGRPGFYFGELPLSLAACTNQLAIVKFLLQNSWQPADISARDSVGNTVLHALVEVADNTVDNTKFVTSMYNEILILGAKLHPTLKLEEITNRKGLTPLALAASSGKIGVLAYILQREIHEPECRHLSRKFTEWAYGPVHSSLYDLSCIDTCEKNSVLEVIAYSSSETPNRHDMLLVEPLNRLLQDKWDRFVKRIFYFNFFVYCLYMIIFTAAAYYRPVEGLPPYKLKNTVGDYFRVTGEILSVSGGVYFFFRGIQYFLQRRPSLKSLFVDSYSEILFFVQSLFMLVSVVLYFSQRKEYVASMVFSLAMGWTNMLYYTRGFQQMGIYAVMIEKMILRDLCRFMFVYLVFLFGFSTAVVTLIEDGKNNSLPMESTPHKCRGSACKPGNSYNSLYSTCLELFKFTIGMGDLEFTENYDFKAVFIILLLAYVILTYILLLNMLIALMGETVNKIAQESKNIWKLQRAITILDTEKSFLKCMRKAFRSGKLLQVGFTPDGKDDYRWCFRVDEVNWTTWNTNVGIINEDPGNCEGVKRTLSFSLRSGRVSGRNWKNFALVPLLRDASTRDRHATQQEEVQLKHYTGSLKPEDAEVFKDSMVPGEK

T1 sequence (O35433 whole entry): as above

Structure (SMILES) | Ki [1] [nM] | Ki [2] [nM] | EC50 [3] [nM] | Activity [4] [%]
COc1c(NS(C)(=O)=O)ccc2c1CCC2NC(=S)NCc1ccc(C(C)(C)C)cc1 (centres undefined) | 1820 | 1690 |  | 
COc1cc2c(cc1NS(C)(=O)=O)CCC2NC(=S)NCc1ccc(C(C)(C)C)cc1 (centres undefined) | 3370 | 25000 |  | 
COc1cc(CNC(=S)NCc2ccc(C(C)(C)C)cc2)ccc1NS(C)(=O)=O |  |  | 32.4 | 17
CC(C)(C)c1ccc(CNC(=S)NC2CCCc3cc(NS(C)(=O)=O)ccc32)cc1 (centres undefined) | 1590 | 2640 |  | 
COc1c(NS(C)(=O)=O)ccc2c1CCCC2NC(=S)NCc1ccc(C(C)(C)C)cc1 (centres undefined) | 1750 | 4700 |  | 
CC(C)(C)c1ccc(CNC(=S)NC2CCc3cc(NS(C)(=O)=O)ccc32)cc1 (centres undefined) | 660 | 740 |  | 
COc1cc2c(cc1NS(C)(=O)=O)CCCC2NC(=S)NCc1ccc(C(C)(C)C)cc1 (centres undefined) | 6900 |  |  | 14

From ChEMBL document CHEMBL1152841, “Conformationally constrained analogues of N'-(4-tert-butylbenzyl)-N-(4-methylsulfonylaminobenzyl)thiourea as TRPV1 antagonists” (Eur J Med Chem, 2009)
